Measured values published in patent publication US20060094071A1 (priority 2002, published 2006).
Where no end group is shown, it is not given here. The star is where a group is joined. Propionyl = CCC(=O)*

How the values were obtained:
[1] = target: T1, PrP^Sc (Bos taurus, UniProt P10279); format: binding, cattle
[2] = target: T1, PrP^Sc; format: binding, cattle; details: pH 3
[3] = system: PrP^Sc

Substance	PrP^Sc binding efficiency (relative) [1]	Elution efficiency [2]	Extinction at 450 nm, BSE-positive versus BSE-negative animals [3]
Leu-Pro-Phe-Phe-Asp (LPFFD; beta-sheet binding peptide) [Peptide 3]	46.6%		
Gly-Val-Val-Ile-Ala [Peptide 6]	64.5%		
Propionyl-RIIGL [Peptide 5]	58.1%		
Propionyl-DArg-DArg-DA1a-DPhe-DPhe-DVal-amide [Peptide 7]	76.5%		
Arg-Val-Val-Ile-Ala [Peptide 1]	54.7%		
Lys-Leu-Val-Phe-Phe [Peptide 2]	100.0%	remained almost completely bound	significantly (t-test) raised
Propionyl-IIGL [Peptide 4]	55.1%		
